Experimental data: ChEMBL document CHEMBL1132881, “First pharmacophoric hypothesis for 5-HT7 antagonism” (Bioorg Med Chem Lett, 2000)

Target: T1, 5-hydroxytryptamine receptor 7 (Rattus norvegicus, UniProt P32305)
Assay: Binding affinity against 5-hydroxytryptamine 7 receptor using [3H]-5-CT in rat hypothalamus membranes
Format: cell membranes, Membrane

T1 sequence (P32305 whole entry): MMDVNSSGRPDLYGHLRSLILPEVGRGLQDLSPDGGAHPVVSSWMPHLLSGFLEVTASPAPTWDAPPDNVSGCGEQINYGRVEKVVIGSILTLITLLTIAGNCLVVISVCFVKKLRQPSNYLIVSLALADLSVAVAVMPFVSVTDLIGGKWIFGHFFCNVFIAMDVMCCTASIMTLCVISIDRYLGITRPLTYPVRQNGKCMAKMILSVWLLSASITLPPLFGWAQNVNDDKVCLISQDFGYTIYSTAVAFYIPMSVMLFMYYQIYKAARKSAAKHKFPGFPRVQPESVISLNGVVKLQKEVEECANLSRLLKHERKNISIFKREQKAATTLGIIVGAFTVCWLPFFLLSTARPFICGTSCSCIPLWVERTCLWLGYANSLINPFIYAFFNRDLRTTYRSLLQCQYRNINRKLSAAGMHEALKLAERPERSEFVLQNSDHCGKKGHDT

| Compound | Ki |
| --- | --- |
| CN1CCN(CCCCN2c3cccc4cccc(c34)S2(=O)=O)CC1 | > 10 µM |
| CC1CCN(CCCCCN2c3cccc4cccc(c34)S2(=O)=O)CC1 | > 10 µM |
| CC1CCN(CCCCN2c3cccc4cccc(c34)S2(=O)=O)CC1 | > 10 µM |
| COc1ccccc1N1CCN(CCCCCCN2c3cccc4cccc(c34)S2(=O)=O)CC1 | 0.2 µM |
| O=S1(=O)c2cccc3cccc(c23)N1CCCCCN1CCN(c2ccccc2)CC1 | 0.2 µM |
| COc1ccccc1N1CCN(CCCCN2c3cccc4cccc(c34)S2(=O)=O)CC1 | 0.2 µM |
| O=C1c2cccc3cccc(c23)N1CCCCN1CCCCC1 | > 10 µM |
| CN1CCN(CCCCN2C(=O)c3cccc4cccc2c34)CC1 | > 10 µM |
| CC(C)C1CCN(CCCCN2C(=O)c3cccc4cccc2c34)CC1 | 0.2 µM |
| COc1ccccc1N1CCN(CCCCCN2C(=O)c3cccc4cccc2c34)CC1 | 0.1 µM |
| O=S1(=O)c2cccc3cccc(c23)N1CCCCN1CCCCC1 | > 10 µM |
| CC1CCN(CCCCN2C(=O)c3cccc4cccc2c34)CC1 | > 1 µM |
| COc1ccccc1N1CCN(CCCCN2C(=O)c3cccc4cccc2c34)CC1 | 0.0631 µM |
| COc1ccccc1N1CCN(CCCCCN2c3cccc4cccc(c34)S2(=O)=O)CC1 | 0.251 µM |
| O=C1c2cccc3cccc(c23)N1CCCCCN1CCN(c2ccccc2)CC1 [UCM-5600] | 0.0794 µM |

Target: T1, 5-hydroxytryptamine receptor 7
Assay: Binding affinity towards 5-hydroxytryptamine 7 receptor

| Compound | Ki |
| --- | --- |
| CCN(CC)C(=O)[C@@H]1C=C2c3cccc4[nH]c(Br)c(c34)C[C@H]2N(C)C1 | 0.01 µM |
| CN1C[C@H](CNC(=O)OCc2ccccc2)C[C@@H]2c3cccc4c3c(cn4C)C[C@H]21 [METERGOLINE] | 0.00631 µM |
| Cc1nc2sccn2c(=O)c1CCN1CCC(=C(c2ccc(F)cc2)c2ccc(F)cc2)CC1 [RITANSERIN] | 0.0158 µM |
| Cc1cccc(S(=O)(=O)N2CCC[C@@H]2CCN2CCC(C)CC2)c1 [SB-258741] | 0.00316 µM |

Target: T2, 5-hydroxytryptamine receptor 7 (Homo sapiens, UniProt P34969)
T2 sequence (P34969 whole entry): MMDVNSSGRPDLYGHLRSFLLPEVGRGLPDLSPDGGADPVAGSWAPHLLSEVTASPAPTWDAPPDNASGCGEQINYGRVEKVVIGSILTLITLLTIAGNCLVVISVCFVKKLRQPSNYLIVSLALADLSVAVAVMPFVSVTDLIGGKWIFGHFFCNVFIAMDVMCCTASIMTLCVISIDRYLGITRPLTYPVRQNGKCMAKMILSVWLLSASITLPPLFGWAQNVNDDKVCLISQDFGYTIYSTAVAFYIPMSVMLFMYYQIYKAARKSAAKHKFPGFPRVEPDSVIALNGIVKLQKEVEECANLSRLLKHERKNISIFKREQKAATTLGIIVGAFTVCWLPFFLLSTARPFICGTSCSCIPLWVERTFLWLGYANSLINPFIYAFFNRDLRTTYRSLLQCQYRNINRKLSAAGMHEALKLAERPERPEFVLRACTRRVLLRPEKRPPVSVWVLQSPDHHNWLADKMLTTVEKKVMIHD
Assay: Binding affinity towards cloned human 5-hydroxytryptamine 7 receptor in HEK 293 cells
Format: cell-based, HEK293

| Compound | Ki |
| --- | --- |
| O=C1Nc2cccc3c2C1(CCCCN1CCN(C2CCCCC2)CC1)CCC3 (stereo not drawn) | 10 µM |
| C[C@H]1CCCN(CC[C@H](C)N(C)S(=O)(=O)c2cccc3ccccc23)C1 | 10 µM |

Target: T2, 5-hydroxytryptamine receptor 7
Assay: Binding affinity towards human recombinant 5-hydroxytryptamine 7 receptor using [3H]5-CT as radioligand

| Compound | Ki |
| --- | --- |
| O=C1Nc2cccc3c2C1(CCCCN1CCN(c2ccccc2)CC1)CCC3 (stereo not drawn) | 0.00316 µM |
| COc1ccccc1N1CCN(CCCCC23CCCc4cccc(c42)NC3=O)CC1 (stereo not drawn) | 0.00501 µM |
| O=C1Nc2cccc3c2C1(CCCCN1CCC(c2ccccc2)CC1)CCC3 (stereo not drawn) | 0.002 µM |
| O=C1Nc2cccc3c2C1(CCCN1CCN(c2ccccc2)CC1)CCC3 (stereo not drawn) | 0.00501 µM |
| O=C1Nc2cccc3c2C1(CCN1CCN(c2ccccc2)CC1)CCC3 (stereo not drawn) | 0.1 µM |
| N#Cc1ccccc1N1CCN(CCCCC23CCCc4cccc(c42)NC3=O)CC1 (stereo not drawn) | 0.00398 µM |
| O=C1Nc2cccc3c2C1(CCCCN1CCN(c2ccccn2)CC1)CCC3 (stereo not drawn) | 0.002 µM |
